Laboratory results as given in patent publication US20050042213A1, “Methods and pharmaceutical compositions for modulating heparanase activation and uses thereof” (InSight Biopharmaceuticals Ltd., priority 2003, published 2005).

Tests used:
pro-heparanase (H60) = molecular target: T1, pro-heparanase (H60) (Homo sapiens, UniProt Q9Y251, K307R); assay: Surface plasmon resonance, interaction with the pro-heparanase polypeptide; type: binding; details: data not shown
T1 sequence (Q9Y251 36-543 K307R): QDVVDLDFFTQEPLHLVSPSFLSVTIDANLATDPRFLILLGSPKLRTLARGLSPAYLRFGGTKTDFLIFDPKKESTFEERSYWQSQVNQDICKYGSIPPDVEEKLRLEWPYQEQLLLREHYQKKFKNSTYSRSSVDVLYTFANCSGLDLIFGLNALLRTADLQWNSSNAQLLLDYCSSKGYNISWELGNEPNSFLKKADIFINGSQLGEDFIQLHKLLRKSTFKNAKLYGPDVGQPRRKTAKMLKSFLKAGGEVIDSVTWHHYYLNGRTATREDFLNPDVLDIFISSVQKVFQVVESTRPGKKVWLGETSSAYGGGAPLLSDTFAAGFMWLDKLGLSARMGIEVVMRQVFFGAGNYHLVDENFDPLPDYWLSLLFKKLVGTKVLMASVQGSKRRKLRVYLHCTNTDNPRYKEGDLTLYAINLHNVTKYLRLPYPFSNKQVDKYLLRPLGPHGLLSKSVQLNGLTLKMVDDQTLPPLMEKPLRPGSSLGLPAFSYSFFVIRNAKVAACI

HUVEC cell = assay: Cell Migration Assay (Boyden chamber); type: cell-based; details: Homo sapiens, HUVEC cells, 5 h, read-out: Inhibition of chemotaxis IC50
Experimental: Cord formation and cell migration assays were executed following explicit directives provided by the inventors of the present invention by the National Cancer Institute (Biological Testing Branch, Developmental Therapeutics Program, DCTD, NCI, Fairview Center, Suite 205, 1003 West 7th Street, Frederick, Md. 21701-8527).
Cell Migration Assay—Migration was assessed using a 48-well Boyden chamber including 8 μm pore size collagen-coated (10 μg/ml rat tail collagen; Collaborative Laboratories) polycarbonate filters (Osmonics, Inc.). The bottom chamber wells included 27-29 μl of DMEM medium alone (baseline) or medium containing chemo-attractant (bFGF, VEGF or Swiss 3T3 cell conditioned medium). The top chambers included 45 μl of HUVEC cell suspension (1×10^6 cells/ml) prepared in DMEM+1% BSA with or without the test compound. Followinf 5 h of incubation at 37° C., the membrane was rinsed with PBS, fixed and stained in Diff-Quick solutions. The filter was placed on a glass slide with the migrated cells facing down and cells on top were removed using a Kimwipe. The testing was performed in 4-6 replicates where five fields were counted from each well. Negative unstimulated control values were subtracted from stimulated control and drug treated values. Data wad plotted as mean migrated cell±S.D. IC50 was calculated from the plotted data.

HT1080 cells = assay: In vitro assay of invasion inhibition (matrigel, BD BioCoat); type: cell-based; details: Homo sapiens, HT-1080
Experimental: In vitro assay of invasion inhibition—The ability of the compounds of the invention to inhibit cell invasion was determined quantitatively by the in vitro Endothelial Cell Migration assay using a BD BioCoat Angiogenesis System kit. The kit consisted of a 24-multiwell insert plate (FluoroBlok, BD Falcon) containing a microporous (3.0 μm pore size) polyethylene terephthalate (PET) membrane that was capable of blocking fluorescence completely (>99% efficiency). This membrane was uniformly coated with matrigel (BD Matrigel Matrix). The uniform layer of matrigel matrix served as a reconstituted authentic basement membrane in vitro, providing a true barrier to non-invasive cells, but allowing endothelial cells to attach to the membrane and freely migrate towards an angiogenic stimulus in the lower chamber of the insert plate. Post-labeling the cells with a fluorescent dye and measuring the fluorescence of invading cells in a fluorescent plate reader, provided quantitative measurement of cell invasion.
To cover the optimal seeding density for HT1080 cells, suspensions containing various cell concentrations were prepared: 1 ml of 3×10^5 cells/ml, 8 ml of 1.5×10^5 cells/ml and 1 ml of 0.75×10^5 cells/ml. […] Only those labeled cells that have invaded the matrigel and passed through the pores of the PET membrane, were detected.

VEGF = molecular target: T2, VEGF (Homo sapiens, UniProt P15692); assay: Elisa assay for binding of VEGF to heparin; details: inhibition of VEGF binding to heparin
T2 sequence (P15692 27-191 isoform P15692-4): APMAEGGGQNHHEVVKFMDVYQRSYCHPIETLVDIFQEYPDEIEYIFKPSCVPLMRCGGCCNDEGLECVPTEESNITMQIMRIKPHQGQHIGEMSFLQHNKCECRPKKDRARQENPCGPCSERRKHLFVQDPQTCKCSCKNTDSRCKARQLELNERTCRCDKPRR
Experimental: Elisa assay for determination of binding of VEGF to heparin—96 well microplates were coated overnight with Heparin-albumin (Lizard) and blocked with 1% BSA in PBS with 0.05% Tween and 0.01% thimerosal for 2 hrs. VEGF was added to the plates at a concentration of 2 ng/ml and incubated for 45 min. at 23-25° C. The amount of VEGF bound to heparin was detected using anti-VEGF monoclonal antibody (Sigma Cat. # V4758) at a concentration of 0.26 μg/ml and secondary antibodies Sheep anti-mouse IgG linked to horseradish peroxidase (1:2000). TMB (Pierce Cat. #34021) was used as a substrate for peroxidase.
The plates were read at 450 nm with a reference wavelength of 630 nm using a VERSAmax plate reader. […] Percent inhibition was calculated as compared with the control reactions pre-incubated with 1% DMSO only.

O=C(O)CCCN1C(=O)C(=Cc2ccc(-c3ccc([N+](=O)[O-])cc3)o2)SC1=S [Compound 5]
binding to the H60 molecule (pro-heparanase (H60)): reversibly bind | IC50 (HUVEC cell): 0.4 µM | IC50 (HT1080 cells): 12 µM | IC50 (VEGF): 3.2 µM
